Reference: patent US10039839B2, “Compounds that participate in cooperative binding and uses thereof” (Warp Drive Bio, Inc., priority 2015, dated 2018)
Square brackets hold non-standard residues; d marks the D form. Peptide text beside a SMILES is read from it. MeBmt = C/C=C/C[C@@H](C)[C@@H](O)[C@H](NC)C(=O)O; NMeF = CN[C@@H](Cc1ccccc1)C(=O)O; NMeL = CN[C@@H](CC(C)C)C(=O)O; NMeV = CN[C@H](C(=O)O)C(C)C; Abu = CC[C@H](N)C(=O)O; Sar = CNCC(=O)O

Tests used:
[1] = test system: HeLa-Cyclophilin A cells; assay: Biosensor cell permeability assay, cyclophilin binding compounds; format: cell-based; settings: 72 hrs
Protocol: (§1) This protocol utilizes a modified FKBP or cyclophilin destabilizing mutant to determine the bioactivity of FKBP binding compounds or cyclophilin binding compounds in whole cell assay.
(§2) Plate HeLa-FKBP12 cells (for FKBP binding compounds) or HeLa-Cyclophilin A cells (for cyclophilin binding compounds) and seed overnight at 5 k/well (approximately ˜18 hrs.). Using a multi-channel pipet, take out the old media and add ˜125 ul of new media with compounds. Compounds are diluted using DMEM without Phenol Red, 10% FBS, 1× Sodium Pyruvate, 1× Glutamax. Add 125 ul of media with compound per well.
(§3) Cell binding/permeability is calculated in fold-change (Total RFU of treated samples/total RFU of DMSO treated samples or total RFU above background (Total RFU minus total RFU of DMSO treated samples).

[2] = target: T1, CEP250 (Homo sapiens, UniProt Q9BV73); assay: SPR binding of CEP250 (analyte) to immobilized FKBP12-F2 binary complex
T1 construct: CEP25011.4 (residues 2134-2231) (in-house); made in house
Protocol: Experiments are performed at 25° C.

[3] = target: T1, CEP250; assay: ITC binding of FKBP12-compound binary complexes to CEP250; settings: FKBP12 10 μM + ligand 20 μM, 298 K
Protocol: This protocol utilizes Isothermal Titration calorimetry (ITC) to directly measure the heat change associated with binding of FKBP12-F2 and FKBP12-F11 binary complexes to CEP250. Measurement of the heat change allows accurate determination of association constants (Ka), reaction stoichiometry (N), and the change in binding enthalpy (ΔH).
FKBP12 stock solution is diluted to 10 μM in assay buffer (1% DMSO final). Compound is added to FKBP12 to 20 μM (1% DMSO final), and binary complex is filled into the reaction cell of the ITC device after 5-10 min pre-incubation time. […] A control experiment in the absence of compound is also run to determine the heat associated with operational artifacts and the dilution of titrant as it is injected from the syringe into the reaction cell.
Data were fitted with the Origin ITC200 software according to the following procedure: • 1) Read raw data • 2) In “mRawITC”: adjust integration peaks and baseline, integrate all peaks • 3) In “Delta H”—data control: remove bad data (injection #1 and other artifacts), subtract straight line (background subtraction) • 4) In “Delta H”—model fitting: select one set of sites model, perform fitting with Levenberg-Marquardt algorithm until Chi Square is not reduced further, finish with “done” (parameters N, Ka and ΔH are calculated based on fitting)

[4] = test system: HeLa-FKBP12 cells; assay: Biosensor cell permeability assay, FKBP binding compounds; format: cell-based; settings: 72 hrs
Protocol: as §1
as §2, with “well. Cells are treated with compounds at concentration: 30, 10, 3.33, 1.11, 0.37, 0.12, 0.04 and 0.013 uM. Time points are taken at 72 hrs and plate read using plate reader with excitation/emission: 575/620.” for “well.”
as §3

[5] = target: T2, FKBP12 (Homo sapiens, UniProt P62942); assay: AlphaLISA: inhibition of binding of biotinylated FK506 to FLAG tagged FKBP12; design: made in house
Protocol: This protocol utilizes Perkin Elmers AlphaLISA technology platform to detect FKBP binders by measuring the inhibition of binding of biotinylated FK506 to FLAG tagged FKBP12.
Add 20 uL of 12.5 nM FKBP-FLAG working stock to each well of the 96-well plate. Add 1 uL of test compound (100% DMSO) to each well of the plate using the Janus MTD head and P20 tips (except control wells). Add 1 uL of DMSO to negative control wells and 1 uL of 50 uM FK506 solution to positive control wells. In the dark, add 20 uL of combined Donor/Acceptor beads to each well. Incubate in the dark for 30 minutes at room temperature. In the dark, add 10 uL of 5 nM biotinylated FK506 working stock to each well. Incubate in the dark for 60 minutes at room temperature. Protect plate from light until reading on Biotek Synergy2 Plate Reader; Alphalisa 96-well protocol (680 excitation/615 emission).

[6] = target: T2, FKBP12
Protocol: This protocol utilizes Surface Plasmon Resonance (SPR) as a method to determine kinetics (KD, Ka, Kd) for the binding of compound (analyte) to immobilized FKBP12 (ligand).
Experiments are performed at 25° C. Stock solution of 12×HIS tagged FKBP12 is diluted to 100 nM in assay buffer (1% DMSO final). Approximately 500-600 RU of FKBP12 is immobilized on one of two flow cells of an activated NTA chip. The second flow cell is not activated as a reference for non-specific interaction of the analyte to the sensor chip. Various concentrations of compound (1 nM-1 μM range), serially diluted into the same assay buffer (1% DMSO final), are injected onto the FKBP12 surface and reference surface at a flow rate of 10 μl/min. The surface is regenerated between analyte injections with 350 mM EDTA.
The BiaEvaluation software program is used for data fitting. All data is reference subtracted against both the reference flow cell and a buffer injection. For kinetic analyses, data is locally fit to a 1:1 interaction model.
Experiments are performed at 25° C. Stock solution of 12×HIS tagged FKBP12 is diluted to 100 nM in assay buffer (1% DMSO final). Approximately 500-600 RU of FKBP12 is immobilized on one of two flow cells of an activated NTA chip. The second flow cell is not activated as a reference for non-specific interaction of the analyte to the sensor chip.

[7] = target: T3, CEP250 (Homo sapiens, UniProt P62942+Q9BV73); assay: Crystal structure analysis of FKBP12-compound-CEP250 ternary complexes; settings: FKBP12-compound-CEP25011.4 crystal structure
T3 construct: CEP25011.4 (residues 2134-2231) (in-house); made in house
Excerpt: As used herein, the term “buried surface area” refers to the surface area of a protein or a complex that is not exposed to solvent. Buried surface area may be determined by methods known in the art including by calculating inaccessibility to solvent. Inaccessibility to solvent may be calculated computationally with a rolling probe of 1.4 A, using a program such as PDBePISA release version 1.48 (http://www.ebi.ac.uk/pdbe/pisa/).
This protocol describes the crystallization and structure determination method for structures of FKBP12-Compound 2-CEP250 and FKBP12-F11-CEP250 ternary complexes.
A 3:1 molar excess of FKBP12-F2 or FKBP12-F11 binary complex is added to CEP25011.4 and incubated at 4° C. overnight to complete ternary complex formation. Pure ternary complex is isolated by gel filtration purification on a Superdex 200 column in 12.5 mM HEPES pH 7.4, 75 mM NaCl. Purified complex (at 10-20 mg/ml) is subjected to crystallization at 22° C. using sitting drop vapor diffusion. FKBP12-F2-CEP250 crystals grow in a well solution containing 0.2 M sodium malonate, 0.1 M HEPES 7.0, 21% PEG 3350. FKBP12-F11-CEP250 crystals grow in a well solution containing 0.1 M Tris pH 8.5, 0.2 M trimethylamine N-oxide, 22-24% PEG2000 MME. For data collection crystals are transferred to a solution containing mother liquor supplemented with 20-25% glycerol, and then frozen in liquid nitrogen. Diffraction datasets are collected at the Advanced Photon Source (APS) and processed with the HKL program. Molecular replacement solutions are obtained using the program PHASER in the CCP4 suite, using the published structure of FKBP12 (PDB-ID 1FKD) as a search model. Subsequent model building and refinement are performed according to standard protocols with the software packages CCP4 and COOT.

[8] = FKBP12/F2 complex to CEP25011.4 (residues 2134-2231)
[9] = FKBP12/F2 complex to CEP25029.2 (residues 1982-2231)

T3 sequence (Q9BV73 2134-2231): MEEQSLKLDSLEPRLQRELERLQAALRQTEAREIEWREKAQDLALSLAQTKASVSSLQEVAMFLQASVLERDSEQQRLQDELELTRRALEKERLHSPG
T3 sequence (P62942 whole entry, the tested form may be a part): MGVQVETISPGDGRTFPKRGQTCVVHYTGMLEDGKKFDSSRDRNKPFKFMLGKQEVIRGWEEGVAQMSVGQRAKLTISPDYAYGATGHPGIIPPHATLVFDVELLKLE
T2 sequence (P62942 whole entry, species assumed): as the sequence (P62942 whole entry, the tested form may be a part) above

Row | Structure (SMILES) | IC50 [4] | IC50 [5] | Kd [6] | further results
1 | C/C=C/C[C@@H](C)[C@@H](O)[C@H]1C(=O)N[C@@H](CC)C(=O)N(C)CC(=O)N(C)[C@@H](Cc2ccccc2)C(=O)N[C@@H](C(C)C)C(=O)N(C)[C@@H](CC(C)C)C(=O)N[C@@H](C)C(=O)N[C@H](C)C(=O)N(C)[C@@H](CC(C)C)C(=O)N(C)[C@@H](CC(C)C)C(=O)N(C)[C@@H](C(C)C)C(=O)N1C [C36] (cyclo([MeBmt][Abu][Sar][NMeF]V[NMeL]A[dA][NMeL][NMeL][NMeV])) | – | – | – | IC50 [1]: < 3000 nM
2 | CC[C@H](Cc1ccccc1)[C@@H]1/C=C/C/C=C/C[C@@H](C)[C@H](O)[C@@H](C)[C@@H]2CC[C@@H](C)C(=O)C(O)(O2)C(=O)N2CCCC[C@H]2C(=O)O1 [F2, (2S)-1-((4R,7S)-7-((2R,3S,4R,6E,9E,11R,12R)-12-benzyl-3,11-dihydroxy-4-methyltetradeca-6,9-dien-2-yl)-2-hydroxy-4-methyl-3-oxooxepane-2-carbonyl)piperidine-2-carboxylic acid C-11 lactone] | – | – | – | dissociation rate constant (koff) [2, 8]: 3.09×10^−3 1/S; dissociation rate constant (koff) [2, 9]: 9.25×10^−5 1/S; Kd [2, 8]: 5.4 nM; Kd [2, 9]: 0.29 nM; ΔG ([3]; CEP25011.4 68 μM): −40.75 kJ*mol−mol−1; ΔH ([3]; CEP25011.4 68 μM): −49.37 kJ*mol−mol−1; −T*ΔS ([3]; CEP25011.4 68 μM): 8.62 kJ*mol−mol−1; ΔG ([3]; CEP25029.4 118 μM): −38.41 kJ*mol−mol−1; ΔH ([3]; CEP25029.4 118 μM): −52.21 kJ*mol−mol−1; −T*ΔS ([3]; CEP25029.4 118 μM): 13.80 kJ*mol−mol−1
3 | CC1=C\CC(O)CC(/C(C)=C/C(C)=C/C2C=CC(O)C(O)C2)OC(=O)C2CCCCN2C(=O)CC2(O)OC(C(C)C/C=C/CC(O)\C=C\1)C(C)CC2C (stereo not shown) [F6] | < 1000 nM | 60 nM | 141 nM | –
4 | COC1C=C(/C=C/C2OC(=O)C3CCCCN3C(=O)C3(O)OC(CCC(C)C3=O)C(C)C3CC4OC(CC(O)C2C)(O3)C(C)CC4C)CCC1O (stereo not shown) [F7] | – | 26 nM | 120 nM | –
5 | COC1C=C(/C=C/C2OC(=O)C3CCCCN3C(=O)C(=O)C3(O)OC(CCC3C)C(C)C3CC4OC(CC(O)C2C)(O3)C(C)CC4C)CCC1O (stereo not shown) [F8] | – | 10.6 nM | 66 nM | –
6 | COC1C(O)CCC(CC(C)C2CCC/C=C/C/C(C)=C/CC3OC(O)(C(=O)C(=O)N4CCCCC4C(=O)O2)C(C)CC3C)C1O (stereo not shown) [F9] | < 1000 nM | 0.3 nM | 0.23 nM | –
7 | CCC1/C=C(\C)C(O)CCC(C)/C=C/C(O)C(C)C2CCC(C)C(O)(O2)C(=O)C(=O)N2CCCCC2C(=O)OC2C=CC(=CC2O)/C=C(\C)C1 (stereo not shown) [F10] | > 1000 nM | 21.1 nM | 17.2 nM | –
8 | CC[C@H](Cc1ccccc1)[C@@H]1CCCCCC[C@@H](C)[C@H](O)[C@@H](C)[C@@H]2CC[C@@H](C)C(=O)C(O)(O2)C(=O)N2CCCCC2C(=O)O1 (stereo partly drawn) [F11, (2S)-1-((4R,7S)-7-((2R,3S,4R,11S,12R)-12-benzyl-3,11-dihydroxy-4-methyltetradecan-2-yl)-2-hydroxy-4-methyl-3-oxooxepane-2-carbonyl)piperidine-2-carboxylic acid C-11 lactone] | – | – | – | ΔG ([3]; CEP25011.4 68 μM): −40.36 kJ*mol−mol−1; ΔH ([3]; CEP25011.4 68 μM): −47.78 kJ*mol−mol−1; −T*ΔS ([3]; CEP25011.4 68 μM): 7.41 kJ*mol−mol−1; ΔG ([3]; CEP25029.4 118 μM): −36.74 kJ*mol−mol−1; ΔH ([3]; CEP25029.4 118 μM): −58.48 kJ*mol−mol−1; −T*ΔS ([3]; CEP25029.4 118 μM): 21.73 kJ*mol−mol−1; buried surface area of CEP250 contributed by FKBP12 [7]: 590 Å^2; total buried surface area of CEP250 [7]: 831 Å^2; total buried surface area of the ternary complex [7]: 1648 Å^2; kon ([6]; read-out: Ka): 567000 M⁻¹ s⁻¹
9 | C/C1=C\C2=CC(O)C(C=C2)OC(=O)C2CCCCN2C(=O)C(=O)C2(O)OC(CCC2C)C(C)C(O)/C=C/C(C)CCC(O)/C(C)=C/C(C)C1 (stereo not shown) [F12] | > 1000 nM | 36.3 nM | 21.2 nM | –
10 | COC1CC(/C=C(C)/C=C(\C)C2CC(O)C/C=C(C)/C=C/C(O)C/C=C/CC(C)C3OC(O)(CC(=O)N4CCCCC4C(=O)O2)C(C)CC3C)C=CC1O (stereo not shown) [F13] | > 1000 nM | 33.6 nM | 106 nM | –
11 | COC1CC(/C=C(C)/C=C(\C)C2CC(O)C/C=C(C)/C=C/C(=O)C/C=C/CC(C)C3OC(O)(CC(=O)N4CCCCC4C(=O)O2)C(C)CC3C)C=CC1O (stereo not shown) [F16] | > 1000 nM | 67.5 nM | 290 nM | –
12 | C/C1=C\CC2OC(O)(C(=O)C(=O)N3CCCCC3C(=O)OC(C(C)CC3CCC(O)C(O)C3)CCC/C=C/C1)C(C)CC2C (stereo not shown) [F17] | < 1000 nM | 0.26 nM | 0.2 nM | –
13 | CCC(/C=C(\C)C(O)CCC(C)/C=C/C(O)C(C)C1CCC(C)C(O)(C(=O)C(=O)N2CCCCC2C(=O)O)O1)C/C(C)=C/c1ccc(O)c(O)c1 (stereo not shown) [F18] | < 1000 nM | 229 nM | – | –
14 | COC1CC(CC(C)C2CCC/C=C/C/C(C)=C/CC3OC(O)(C(=O)C(=O)N4CCCCC4C(=O)O2)C(C)CC3C)CCC1O (stereo not shown) [F19] | < 1000 nM | 0.22 nM | – | –
15 | CC(=C\C1C=CC(O)C(O)C1)/C=C(\C)C1CC(O)CC1C(C)(O)/C=C/C(O)C/C=C/CC(C)C1OC(O)(CC(=O)N2CCCCC2C(=O)O)C(C)CC1C (stereo not shown) [F23] | > 1000 nM | 4690 nM | – | –
